Laboratory results: patent US11891403B2, “Tetrazole derivatives as TRPA1 inhibitors” (Boehringer Ingelheim International GmbH, priority 2020, dated 2024)

Experiments:
[1] = target: T1, human TRPA1 ion channel (Homo sapiens, UniProt O75762); experiment: Assay A: TRPA1 assay (FLIPRtetra, AITC-induced intracellular calcium); assay type: cell-based; details: HEK293 cell line over-expressing human TRPA1, AITC agonism (final 10 μM), AUC of calcium signal, read-out: hTRPA1 IC50
T1 construct: host or cells: HEK293
T1 sequence (O75762 whole entry): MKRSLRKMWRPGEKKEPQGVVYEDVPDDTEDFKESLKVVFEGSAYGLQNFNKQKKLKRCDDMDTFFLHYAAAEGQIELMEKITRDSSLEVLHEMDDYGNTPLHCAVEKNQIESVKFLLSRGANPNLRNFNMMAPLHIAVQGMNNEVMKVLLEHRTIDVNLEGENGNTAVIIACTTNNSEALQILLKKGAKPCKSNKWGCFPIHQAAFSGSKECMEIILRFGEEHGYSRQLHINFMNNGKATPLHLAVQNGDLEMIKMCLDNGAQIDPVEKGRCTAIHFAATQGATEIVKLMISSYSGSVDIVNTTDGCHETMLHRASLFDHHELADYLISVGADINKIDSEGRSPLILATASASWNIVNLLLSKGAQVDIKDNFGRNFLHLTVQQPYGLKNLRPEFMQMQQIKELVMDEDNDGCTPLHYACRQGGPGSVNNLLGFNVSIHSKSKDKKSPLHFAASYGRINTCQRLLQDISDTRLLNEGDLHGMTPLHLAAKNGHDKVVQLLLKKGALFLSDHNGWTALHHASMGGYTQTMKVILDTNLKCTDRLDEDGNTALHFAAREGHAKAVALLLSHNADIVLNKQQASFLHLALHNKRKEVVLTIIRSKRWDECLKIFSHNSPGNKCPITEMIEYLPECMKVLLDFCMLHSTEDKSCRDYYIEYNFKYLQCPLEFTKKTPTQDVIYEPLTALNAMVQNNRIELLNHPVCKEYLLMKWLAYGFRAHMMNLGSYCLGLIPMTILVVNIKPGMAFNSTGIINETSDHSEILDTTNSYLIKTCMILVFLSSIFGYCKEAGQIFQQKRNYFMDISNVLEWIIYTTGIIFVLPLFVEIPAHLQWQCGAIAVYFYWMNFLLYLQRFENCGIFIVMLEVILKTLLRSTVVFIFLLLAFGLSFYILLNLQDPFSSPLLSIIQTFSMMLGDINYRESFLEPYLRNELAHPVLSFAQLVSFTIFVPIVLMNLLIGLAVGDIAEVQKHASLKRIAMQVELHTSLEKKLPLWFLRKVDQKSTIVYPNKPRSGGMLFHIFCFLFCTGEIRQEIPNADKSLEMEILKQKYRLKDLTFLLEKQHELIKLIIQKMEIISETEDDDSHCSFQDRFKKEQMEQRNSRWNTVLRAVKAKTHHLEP
Experimental: A human HEK293 cell line over-expressing the human TRPA1 ion channel (Perkin Elmer, Product No. AX-004-PCL) is used as a test system for compound efficacy and potency. Compound activity is determined by measuring the effect of compounds on intracellular calcium concentration induced by AITC (Allylisothiocyanat) agonism in a FLIPRtetra system (Molecular Devices).
The cells are obtained as frozen cells in cryo-vials and stored until use at −150° C.
Cells are grown in culture medium (MEM/EBSS medium with 10% FCS and 0.4 mg/ML Geneticin). […] For sub-culturing cells are detached from flasks by Versene. At the day before the assay, cells are detached, washed twice with medium (MEM/EBSS medium with 10% FCS) and 20000 cells in 20 μl/well are seeded to Poly D-Lysin biocoated 384-well plates (black, clear bottom, Cat. 356697) from Corning. Plates are incubated for 24 hours at 37° C./5% C02 before use in the assay.
The test compounds are dissolved in 100% DMSO at a concentration of 10 mM and in a first step diluted in DMSO to a concentration of 5 mM, followed by serial dilution steps in 100% DMSO. Dilution factor and number of dilution steps may vary according to needs. Typically 8 different concentrations by 1:5 dilutions are prepared, further intermediate dilutions (1:20) of the substances are carried out with HBSS/HEPES buffer (1×HEPES, Cat. 14065 from Gibco, 20 mM HEPES, Cat. 83264 from SIGMA, 0.1% BSA Cat. 11926 from Invitrogen, pH 7.4
At the assay day cells are washed 3× with assay puffer, 20 μL buffer remaining in the wells after washing. 10 μL Ca6 kit (Cat. R8191 Molecular Devices) loading buffer in HBSS/HEPES is added to the cells and the plates are incubated with lid for 120 minutes at 37°/5% CO2. 10 μL of compound or controls in HBSS/HEPES buffer/5% DMSO from the intermediate dilution plate are carefully added to the wells. […] Finally 10 μL of the agonist AITC 50 μM dissolved in HBSS/HEPES buffer/0.05% DMSO (final concentration 10 μM) is added to the wells followed by an additional read on the FLIPRtetra device for 10 minutes. The area under the signal curve (AUC) after AITC addition is used for IC50/% inhibition calculations
Data Evaluation and Calculation:
Each assay microtiter plate contains wells with vehicle (1% DMSO) controls instead of compound as controls for AITC induced luminescence (100% CTL; high controls) and is wells with vehicle controls without AITC as controls for non-specific changes in luminescence (0% CTL; low controls).
The analysis of the data is performed by the calculation of the area under signal curve of the individual wells. Based on this values the % value for the measurement of each substance concentration is calculated (AUC(sample)−AUC(low))*100/(AUC(high)−AUC(low)) using MegaLab software (in house development). The IC50 values are calculated from the % control values using MegaLab software. Calculation: [y=(ad)/(1+(x/c)^b)+d], a=low value, d=high value; x=conc M; c=IC50 M; b=hill; y=% ctrl

[2] = Assay C: Hepatocyte clearance; assay type: in vitro ADME, human; details: cryopreserved hepatocyte suspension, test compound 1 μM, up to 6 h; predicted clearance as % of hepatic blood flow
Experimental: Assay C: Hepatocyte Clearance
The metabolic degradation of the test compound is assayed in a hepatocyte suspension. Hepatocytes (cryopreserved) are incubated in Dulbecco's modified eagle medium (supplemented with 3.5 μg glucagon/500 mL, 2.5 mg insulin/500 mL and 3.75 mg/500 mL hydrocortison) containing 5% or 50% species serum.
The cells are incubated for six hours (incubator, orbital shaker) and samples (25 μl) are taken at 0, 0.5, 1, 2, 4 and 6 hours. Samples are transferred into acetonitrile and pelleted by centrifugation (5 min). The supernatant is transferred to a new 96-deepwell plate, evaporated under nitrogen and resuspended.
Decline of parent compound is analyzed by HPLC-MS/MS
CLint is calculated as follows CL_[…]=Dose/AUC=(CO/CD)/(AUD+clast/k)×1000/60. CO: initial concentration in the incubation [P M], CD: cell density of vital cells [10e6 cells/mL], AUD: area under the data [μM×h], clast: concentration of last data point [μM], k: slope of the regression line for parent decline [h−1].
The calculated in vitro hepatic intrinsic clearance can be scaled up to the intrinsic in vivo hepatic Clearance and used to predict hepatic in vivo blood clearance (CL) by the use of a liver model (well stirred model). CL_[…]_INVIVO [ml/min/kg]=(CL_[…] [μL/min/10e6 cells]×hepatocellularity [10e6 cells/g liver]×liver factor [g/kg bodyweight])/1000 CL [ml/min/kg]=CL_[…]_INVIVO [ml/min/kg]×hepatic blood flow [ml/min/kg]/(CL_[…]_INVIVO [ml/min/kg]+hepatic blood flow [ml/min/kg]) Qh [%]=CL [ml/min/kg]/hepatic blood flow [ml/min/kg])
(§1) Hepatocellularity, human: 120×10e6 cells/g liver
(§2) Liver factor, human: 25.7 g/kg bodyweight
(§3) Blood flow, human: 21 ml/(min×kg)

[3] = Assay B: Microsomal clearance; assay type: in vitro ADME, human; details: pooled liver microsomes 1 mg/ml, test compound 1 μM, 37° C., NADPH; clearance as % of hepatic blood flow
Experimental: Assay B: Microsomal Clearance:
The metabolic degradation of the test compound is assayed at 37° C. with pooled liver microsomes. The final incubation volume of 100 μl per time point contains TRIS buffer pH 7.6 at RT (0.1 M), magnesium chloride (5 mM), microsomal protein (1 mg/ml) and the test compound at a final concentration of 1 μM.
Following a short preincubation period at 37° C., the reactions are initiated by addition of beta-nicotinamide adenine dinucleotide phosphate, reduced form (NADPH, 1 mM) and terminated by transferring an aliquot into solvent after different time points (0, 5, 15, 30, 60 min). Additionally, the NADPH-independent degradation is monitored in incubations without NADPH, terminated at the last time point. The [%] remaining test compound after NADPH independent incubation is reflected by the parameter c (control) (metabolic stability). The quenched incubations are pelleted by centrifugation (10000 g, 5 min).
An aliquot of the supernatant is assayed by LC-MS/MS for the amount of parent compound. The half-life (t½ INVITRO) is determined by the slope of the semilogarithmic plot of the concentration-time profile.
The intrinsic clearance (CL_[…]) is calculated by considering the amount of protein in the incubation: CL_[…] [μl/min/mg protein]=(Ln 2/(half-life [min]*protein content [mg/ml]))*1000 CL_[…]_INVIVO [ml/min/kg]=(CL_[…] [μL/min/mg protein]×MPPGL [mg protein/g liver]×liver factor [g/kg bodyweight])/1000 Qh [%]=CL [ml/min/kg]/hepatic blood flow [ml/min/kg])
as §1, §2, §3

Structure (SMILES) | IC50 [1] [nM] | human Hepatocytes [% Qh] [2] [% Qh] | human LM [% Qh] [3] [% Qh]
CN1C(=O)COc2ncn(Cc3nnn(C[C@H](O)c4ccc(Cl)cc4)n3)c(=O)c21 [Example 1, 3-({2-[(2R)-2-(4-chlorophenyl)-2-hydroxyethyl]-2H-1,2,3,4-tetrazol-5-yl}methyl)-5-methyl-3H,4H,5H,6H,7H-pyrimido[4,5-b][1,4]oxazine-4,6-dione] | 53 | 7 | <23
CN1C(=O)COc2ncn(Cc3nnn(C[C@H](O)c4cc5ccc(F)cc5s4)n3)c(=O)c21 [Example 2] | 15 | 16 | <23
CN1C(=O)COc2ncn(Cc3nnn(C[C@H](O)c4cc5ccccc5s4)n3)c(=O)c21 [Example 3] | 23 | 18 | <23
CN1C(=O)COc2ncn(Cc3nnn(C[C@H](O)c4cc5cc(Cl)ccc5o4)n3)c(=O)c21 [Example 4] | 32 | 31 | <23
CN1C(=O)COc2ncn(Cc3nnn(C[C@H](O)c4cc(Cl)c(Cl)s4)n3)c(=O)c21 [Example 5] | 39 | 29 | <23
CN1C(=O)COc2ncn(Cc3nnn(C[C@H](O)c4cc5cc(F)ccc5o4)n3)c(=O)c21 [Example 6] | 45 | 13 | <23
CN1C(=O)COc2ncn(Cc3nnn(C[C@H](O)c4cc5cc(F)c(F)cc5o4)n3)c(=O)c21 [Example 7] | 60 | 21 | <23
CN1C(=O)COc2ncn(Cc3nnn(C[C@H](O)c4ccc(Br)cc4)n3)c(=O)c21 [Example 8] | 62 | 11 | <23
Cc1ccc([C@@H](O)Cn2nnc(Cn3cnc4c(c3=O)N(C)C(=O)CO4)n2)cc1 [Example 9] | 73 | 5 | <23
CN1C(=O)COc2ncn(Cc3nnn(C[C@H](O)c4ccc(Cl)s4)n3)c(=O)c21 [Example 10] | 80 | <4 | <23
CN1C(=O)COc2ncn(Cc3nnn(C[C@H](O)c4cc5cc(Cl)c(F)cc5o4)n3)c(=O)c21 [Example 11] | 81 | 29 | 34
CN1C(=O)COc2ncn(Cc3nnn(C[C@H](O)c4cc5ccccc5o4)n3)c(=O)c21 [Example 12] | 115 | 8 | <23
CN1C(=O)COc2ncn(Cc3nnn(C[C@H](O)c4cc5ccc(F)cc5o4)n3)c(=O)c21 [Example 13] | 145 | 10 | <23
CN1C(=O)COc2ncn(Cc3nnn(C[C@H](O)c4ccc5c(c4)OCO5)n3)c(=O)c21 [Example 14] | 191 | 5 | <23
CN1C(=O)COc2ncn(Cc3nnn(C[C@H](O)c4cc5cc(F)c(Cl)cc5o4)n3)c(=O)c21 [Example 15] | 227 | 29 | 26
CN1C(=O)COc2ncn(Cc3nnn(C[C@H](O)c4ccc(C#N)s4)n3)c(=O)c21 [Example 16] | 237 | <4 | <23
COc1ccc([C@@H](O)Cn2nnc(Cn3cnc4c(c3=O)N(C)C(=O)CO4)n2)cc1 [Example 17] | 248 | 13 | <23
CN1C(=O)COc2ncn(Cc3nnn(C[C@H](O)c4cc5cccc(F)c5o4)n3)c(=O)c21 [Example 18] | 153 | 8 | <23
CN1C(=O)COc2ncn(Cc3nnn(C[C@H](O)c4ccc5cc(C#N)oc5c4)n3)c(=O)c21 [Example 19] | 214 | 19 | <23
CN1C(=O)CCc2ncn(Cc3nnn(C[C@H](O)c4ccc(Cl)cc4)n3)c(=O)c21 [Example 20] | 140 | <4 | <23
CN1C(=O)CSc2ncn(Cc3nnn(C[C@H](O)c4ccc(Cl)cc4)n3)c(=O)c21 [Example 21] | 155 | 6 | <23
